Measured values: patent publication US10647679B2, “N-methyl-D-aspartate receptor (NMDAR) potentiators, pharmaceutical compositions, and uses related thereto” (Emory University, priority 2015, dated 2020)
Where two headings read alike, the source gives them in different places. Values belong to the compound of their own block, whether it stands above or below them.

Experiments:
Type in all cases: cell-based
[1] = target: T1, recombinant rat GluN1/GluN2B (Rattus norvegicus, UniProt P35439+Q00960); assay: Two-electrode voltage-clamp (TEVC) recordings in Xenopus laevis oocytes, GluN1/GluN2B
T1 construct: expressed in transfected cells; host or cells: Xenopus laevis oocytes (Ecocyte) injected with in vitro transcribed cRNA
Method: (§1) Data are from between 3-26 oocytes from 2-5 frogs for each compound and receptor tested.
(§2) Two-electrode voltage-clamp recordings were performed in Xenopus laevis oocytes (Ecocyte) expressing recombinant rat GluN1/GluN2A, GluN1/GluN2B, GluN1/GluN2C, GluN1/GluN2D. cRNA was transcribed in vitro (Ambion), diluted with nuclease free water, and injected at a ratio of 1:2 GluN1:GluN2 (5-10 ng total cRNA). The oocytes were kept in Barth's solution comprised of (in mM) 88 NaCl, 5 Tris-HCl, 2.4 NaHCO3, 1 KCl, 0.84 MgSO4, 0.41 CaCl2, and 0.33 Ca(NO3)2 at pH 7.4 at 15-17° C. for two to five days before experiments. Oocytes were placed into a perfusion chamber and continually washed with recording solution containing (in mM) 90 NaCl, 1.0 KCl, 0.5 BaCl2, 0.005 EDTA, and 10 HEPES at pH 7.4 (23° C.). Voltage clamp recordings were conducted at a holding potential of −40 mV. All compounds were made as 20 mM stock solutions in DMSO and dissolved to reach the final concentration in recording solution. Final DMSO content was 0.05-0.5% (vol/vol). Some oocytes expressing GluN1/GluN2A were pretreated with […] BAPTA-AM for 10 minutes or injected with […] of 2 mM K-BAPTA to prevent gradual run-up of the current response.

[2] = target: T2, recombinant rat GluN1/GluN2D (Rattus norvegicus, UniProt P35439+Q62645); assay: Two-electrode voltage-clamp (TEVC) recordings in Xenopus laevis oocytes, GluN1/GluN2D
T2 construct: expressed in transfected cells; host or cells: Xenopus laevis oocytes (Ecocyte) injected with in vitro transcribed cRNA
Method: as §1, §2

[3] = target: T3, recombinant rat GluN1/GluN2C (Rattus norvegicus, UniProt P35439+Q00961); assay: Two-electrode voltage-clamp (TEVC) recordings in Xenopus laevis oocytes, GluN1/GluN2C
T3 construct: expressed in transfected cells; host or cells: Xenopus laevis oocytes (Ecocyte) injected with in vitro transcribed cRNA
Method: as §1, §2

[4] = target: T4, recombinant rat GluN1/GluN2A (Rattus norvegicus, UniProt Q00959); assay: Two-electrode voltage-clamp (TEVC) recordings in Xenopus laevis oocytes, GluN1/GluN2A; settings: maximum potentiation, response without modulator = 100%
T4 construct: expressed in transfected cells; host or cells: Xenopus laevis oocytes (Ecocyte) injected with in vitro transcribed cRNA
Method: as §2

[5] = target: T5, recombinant rat GluN1/GluN2B (Rattus norvegicus, UniProt Q00960); assay: Two-electrode voltage-clamp (TEVC) recordings in Xenopus laevis oocytes, GluN1/GluN2B
T5 construct: expressed in transfected cells; host or cells: Xenopus laevis oocytes (Ecocyte) injected with in vitro transcribed cRNA
Method: as §1, §2

[6] = target: T6, recombinant rat GluN1/GluN2D (Rattus norvegicus, UniProt Q62645); assay: Two-electrode voltage-clamp (TEVC) recordings in Xenopus laevis oocytes, GluN1/GluN2D
T6 construct: expressed in transfected cells; host or cells: Xenopus laevis oocytes (Ecocyte) injected with in vitro transcribed cRNA
Method: as §1, §2

[7] = target: T7, recombinant rat GluN1/GluN2C (Rattus norvegicus, UniProt Q00961); assay: Two-electrode voltage-clamp (TEVC) recordings in Xenopus laevis oocytes, GluN1/GluN2C
T7 construct: expressed in transfected cells; host or cells: Xenopus laevis oocytes (Ecocyte) injected with in vitro transcribed cRNA
Method: as §1, §2

[8] = maximum potentiation, response without modulator = 100%, read-out: GluN2B EC50 (μM)/Max %: Max %
[9] = maximum potentiation, response without modulator = 100%, read-out: GluN2D EC50 (μM)/Max %: Max %
[10] = maximum potentiation, response without modulator = 100%, read-out: GluN2C EC50 (μM)/Max %: Max %
[11] = maximum potentiation, response without modulator = 100%

T1 sequence (Q00960 27-1482, other chains not shown): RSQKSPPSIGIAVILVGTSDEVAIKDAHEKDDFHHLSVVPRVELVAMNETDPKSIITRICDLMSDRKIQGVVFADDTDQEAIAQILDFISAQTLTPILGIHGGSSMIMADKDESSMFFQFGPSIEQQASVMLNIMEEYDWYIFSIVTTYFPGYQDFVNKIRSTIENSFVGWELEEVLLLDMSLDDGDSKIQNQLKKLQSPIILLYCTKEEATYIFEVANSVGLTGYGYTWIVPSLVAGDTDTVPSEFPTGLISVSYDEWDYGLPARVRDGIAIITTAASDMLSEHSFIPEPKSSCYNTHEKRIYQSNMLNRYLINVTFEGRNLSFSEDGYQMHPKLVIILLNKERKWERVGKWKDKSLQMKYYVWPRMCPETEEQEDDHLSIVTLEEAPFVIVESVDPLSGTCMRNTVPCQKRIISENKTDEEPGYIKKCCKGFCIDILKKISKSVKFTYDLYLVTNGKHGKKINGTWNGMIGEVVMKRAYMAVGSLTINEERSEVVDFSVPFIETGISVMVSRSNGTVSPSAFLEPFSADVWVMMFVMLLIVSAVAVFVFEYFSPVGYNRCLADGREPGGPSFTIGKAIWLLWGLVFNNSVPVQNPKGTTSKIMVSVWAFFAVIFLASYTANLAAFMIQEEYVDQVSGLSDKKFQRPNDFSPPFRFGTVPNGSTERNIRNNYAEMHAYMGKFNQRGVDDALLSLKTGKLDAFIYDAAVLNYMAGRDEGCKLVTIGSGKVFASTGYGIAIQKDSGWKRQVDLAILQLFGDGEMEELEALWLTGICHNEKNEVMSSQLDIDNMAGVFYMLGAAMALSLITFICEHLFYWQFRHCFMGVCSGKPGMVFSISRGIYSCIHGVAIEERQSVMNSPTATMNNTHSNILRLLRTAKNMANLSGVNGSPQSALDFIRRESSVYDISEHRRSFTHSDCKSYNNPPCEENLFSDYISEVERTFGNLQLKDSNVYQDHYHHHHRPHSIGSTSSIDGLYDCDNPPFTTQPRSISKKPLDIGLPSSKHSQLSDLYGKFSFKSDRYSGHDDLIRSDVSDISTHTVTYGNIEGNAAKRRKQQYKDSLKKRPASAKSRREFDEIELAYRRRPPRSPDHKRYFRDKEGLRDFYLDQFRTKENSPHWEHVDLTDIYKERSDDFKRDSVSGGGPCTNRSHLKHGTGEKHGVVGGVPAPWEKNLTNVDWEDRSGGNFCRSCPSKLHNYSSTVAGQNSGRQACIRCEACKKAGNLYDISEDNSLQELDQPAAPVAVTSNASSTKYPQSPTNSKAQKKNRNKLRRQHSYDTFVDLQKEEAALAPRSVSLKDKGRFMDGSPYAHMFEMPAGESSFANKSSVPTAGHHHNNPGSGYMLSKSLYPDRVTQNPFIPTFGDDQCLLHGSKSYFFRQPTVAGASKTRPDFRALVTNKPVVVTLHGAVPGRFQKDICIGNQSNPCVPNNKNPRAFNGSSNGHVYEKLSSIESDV
T2 sequence (Q62645 28-1323, other chains not shown): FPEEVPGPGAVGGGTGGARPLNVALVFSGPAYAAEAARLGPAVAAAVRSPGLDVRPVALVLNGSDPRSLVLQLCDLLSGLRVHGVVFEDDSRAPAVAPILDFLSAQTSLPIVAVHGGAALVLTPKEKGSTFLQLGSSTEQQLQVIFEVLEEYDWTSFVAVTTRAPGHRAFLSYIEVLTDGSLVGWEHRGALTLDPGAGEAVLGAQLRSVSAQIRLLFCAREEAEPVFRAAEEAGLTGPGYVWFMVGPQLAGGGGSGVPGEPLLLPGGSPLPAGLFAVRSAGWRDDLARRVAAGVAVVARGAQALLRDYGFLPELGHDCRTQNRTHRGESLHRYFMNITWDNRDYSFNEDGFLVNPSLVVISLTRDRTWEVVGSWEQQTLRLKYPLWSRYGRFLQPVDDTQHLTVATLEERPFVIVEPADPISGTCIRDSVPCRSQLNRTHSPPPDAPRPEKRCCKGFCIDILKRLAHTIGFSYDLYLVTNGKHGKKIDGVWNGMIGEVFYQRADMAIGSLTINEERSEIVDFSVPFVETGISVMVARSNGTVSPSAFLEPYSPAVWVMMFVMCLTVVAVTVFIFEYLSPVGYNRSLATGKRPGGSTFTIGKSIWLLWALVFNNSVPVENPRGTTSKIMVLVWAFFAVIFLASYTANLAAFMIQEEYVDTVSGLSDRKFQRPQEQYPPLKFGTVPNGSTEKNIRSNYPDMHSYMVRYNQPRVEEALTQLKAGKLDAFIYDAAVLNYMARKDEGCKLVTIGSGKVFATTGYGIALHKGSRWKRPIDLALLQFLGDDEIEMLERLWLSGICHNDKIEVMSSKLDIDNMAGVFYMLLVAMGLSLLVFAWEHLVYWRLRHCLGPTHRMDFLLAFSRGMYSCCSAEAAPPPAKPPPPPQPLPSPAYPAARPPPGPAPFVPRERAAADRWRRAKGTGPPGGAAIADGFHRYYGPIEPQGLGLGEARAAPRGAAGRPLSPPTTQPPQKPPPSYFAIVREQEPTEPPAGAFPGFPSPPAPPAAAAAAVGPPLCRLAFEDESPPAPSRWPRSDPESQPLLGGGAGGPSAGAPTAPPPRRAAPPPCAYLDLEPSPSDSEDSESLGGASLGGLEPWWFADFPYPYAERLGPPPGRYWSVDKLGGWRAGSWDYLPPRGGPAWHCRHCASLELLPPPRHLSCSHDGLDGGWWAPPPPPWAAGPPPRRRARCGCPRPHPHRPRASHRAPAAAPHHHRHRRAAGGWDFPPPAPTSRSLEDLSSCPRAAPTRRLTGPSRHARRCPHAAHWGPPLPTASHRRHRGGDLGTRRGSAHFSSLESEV
T3 sequence (Q00961 20-1237, other chains not shown): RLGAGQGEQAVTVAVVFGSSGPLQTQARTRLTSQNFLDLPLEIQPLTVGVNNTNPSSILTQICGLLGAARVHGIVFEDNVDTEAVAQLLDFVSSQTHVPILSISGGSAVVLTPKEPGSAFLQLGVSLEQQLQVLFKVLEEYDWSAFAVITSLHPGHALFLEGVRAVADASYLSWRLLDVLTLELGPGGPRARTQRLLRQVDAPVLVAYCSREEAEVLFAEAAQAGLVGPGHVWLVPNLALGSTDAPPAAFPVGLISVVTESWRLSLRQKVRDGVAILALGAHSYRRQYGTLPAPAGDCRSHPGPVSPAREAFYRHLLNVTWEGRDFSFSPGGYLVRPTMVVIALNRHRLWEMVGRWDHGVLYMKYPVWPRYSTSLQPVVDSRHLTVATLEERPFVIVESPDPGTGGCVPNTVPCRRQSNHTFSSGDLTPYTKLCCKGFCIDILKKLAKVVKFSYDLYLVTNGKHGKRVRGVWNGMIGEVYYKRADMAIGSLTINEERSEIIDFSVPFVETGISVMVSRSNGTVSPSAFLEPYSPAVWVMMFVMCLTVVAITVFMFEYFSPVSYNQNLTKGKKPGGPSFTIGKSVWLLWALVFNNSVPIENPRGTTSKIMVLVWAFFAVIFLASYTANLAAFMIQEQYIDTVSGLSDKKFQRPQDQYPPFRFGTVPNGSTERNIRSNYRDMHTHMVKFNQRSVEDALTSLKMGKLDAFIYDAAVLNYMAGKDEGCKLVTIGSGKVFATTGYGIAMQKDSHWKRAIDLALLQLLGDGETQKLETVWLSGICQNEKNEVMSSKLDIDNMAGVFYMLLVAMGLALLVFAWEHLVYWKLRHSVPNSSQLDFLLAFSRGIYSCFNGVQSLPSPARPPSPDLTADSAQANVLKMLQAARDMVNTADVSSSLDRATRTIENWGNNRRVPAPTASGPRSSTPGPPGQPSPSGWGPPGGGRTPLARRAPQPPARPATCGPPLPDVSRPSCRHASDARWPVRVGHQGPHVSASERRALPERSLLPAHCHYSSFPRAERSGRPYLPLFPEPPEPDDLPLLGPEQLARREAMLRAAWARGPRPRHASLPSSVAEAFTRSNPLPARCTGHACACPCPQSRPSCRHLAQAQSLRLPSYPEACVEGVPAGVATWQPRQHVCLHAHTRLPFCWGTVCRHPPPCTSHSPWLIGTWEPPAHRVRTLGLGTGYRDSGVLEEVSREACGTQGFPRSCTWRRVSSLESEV
T6 sequence (Q62645 28-1323, other chains not shown): as the sequence (Q62645 28-1323, other chains not shown) above
T7 sequence (Q00961 20-1237, other chains not shown): as the sequence (Q00961 20-1237, other chains not shown) above

Emax [1, 8]: 307%
Emax [2, 9]: 200%
Emax [3, 10]: 233%
GluN2A EC50 (μM)/Max %: Max % [4]: 179%
Compound: COc1ccc(OCC2c3ccc(OC(C)C)cc3CCN2C(=S)c2cccc(F)c2)cc1 (stereo not drawn) [1180-166]

Compound: COc1ccc(OCC2c3ccc(OC(C)C)cc3CCN2C(=O)c2cccc(F)c2)cc1 (stereo not drawn) [1180-140]
Emax [1, 8]: 450%
Emax [2, 9]: 521%
Emax [3, 10]: 304%
GluN2A EC50 (μM)/Max %: Max % [4]: 159%

GluN2B EC50 (μM)/Max %: Max % [5, 11]: 226%
GluN2D EC50 (μM)/Max %: Max % [6, 11]: 141%
GluN2C EC50 (μM)/Max %: Max % [7, 11]: 162%
GluN2A EC50 (μM)/Max %: Max % [4]: 191%
Compound: CCOc1ccc(OCC2c3ccc(OC(C)C)cc3CCN2C(=S)c2ccc(F)c(Cl)c2)cc1 (stereo not drawn) [1180-165]

EC50 ([1]; fitted when potentiation at 30 μM exceeded 120%, Tables 3, 5-7, read-out: EC50 (max.) (μM %) GluN2B: fitted EC50): 0.21 µM
Emax ([1]; percentage of the initial glutamate (100 μM) and glycine (30 μM) current, read-out: EC50 (max.) (μM %) GluN2B: fitted maximum response): 173%
I30 μM/Icontrol (mean ± SEM, %) GluN2B ([5]; 30 μM compound, Tables 5-7): 156%
EC50 ([2]; fitted when potentiation at 30 μM exceeded 120%, Tables 3, 5-7, read-out: EC50 (max.) (μM %) GluN2D: fitted EC50): 0.3 µM
Emax ([2]; percentage of the initial glutamate (100 μM) and glycine (30 μM) current, read-out: EC50 (max.) (μM %) GluN2D: fitted maximum response): 160%
I30 μM/Icontrol (mean ± SEM, %) GluN2D ([6]; 30 μM compound, Tables 5-7): 157%
I30 μM/Icontrol (mean ± SEM, %) GluN2C ([7]; 30 μM compound, Tables 5-7): 146%
EC50 ([3]; fitted when potentiation at 30 μM exceeded 120%, Tables 3, 5-7, read-out: EC50 (max.) (μM %) GluN2C: fitted EC50): 0.24 µM
Emax ([3]; percentage of the initial glutamate (100 μM) and glycine (30 μM) current, read-out: EC50 (max.) (μM %) GluN2C: fitted maximum response): 182%
Compound: CCOc1ccc(OC[C@H]2c3ccc(OC(C)C)cc3CCN2C(=S)c2cccc(C(F)(F)F)c2)cc1 [(R)-(+)-1180-168]
